From publication PMC8765437, “GSK3640254 Is a Novel HIV-1 Maturation Inhibitor with an Optimized Virology Profile” (Antimicrobial Agents and Chemotherapy, 2022)
Like-named read-outs stand apart in the source and are kept apart here.

Tested on: NLRepRlucP373S viruses containing Gag SDMs or gag/pr genes from clinical isolates
Assay: Multiple-cycle replication assay, NLRepRluc reporter viruses in MT-2 cells, luciferase endpoint
Type: cell-based, HIV-1
Excerpt: Multiple-cycle assays using recombinant viruses or clinical isolates were used to assess MI antiviral activity as described previously ([10]). pNLRepRlucP373S (the P373S change is in the Gag gene and converts an outlier polymorphism in the NL4-3 gene to the prevalent amino acid in the population) plasmids containing SDMs in Gag or gag/pr regions from clinical isolates were transfected into HEK 293T cells, and the supernatant containing recombinant virus was harvested after 4 to 5 days. Virus was used to infect MT-2 cells in the presence of a 3-fold serially diluted compound at a final dimethyl sulfoxide (DMSO) concentration of 1%. The inocula of the reporter viruses were determined based on the luciferase activity detected on day 4 postinfection. The MOI (ratio of infectious virions to target cells) of reporter-free laboratory strains and clinical isolates was 0.005, as derived from a tissue culture infectious dose study. Clinical isolates or reporter-free viruses were examined in the reporter CEM-NKR-CCR5-Luc cells or PBMCs at MOIs ranging from 0.005 to 0.01. Each infection started with a drug-free preincubation of the cell-virus mixtures, performed at 37°C and 5% CO2 for either 1 h at 2 times the final cell density (reporter viruses) or 1 h (reporter-free laboratory strains) or 3 h (clinical isolates) using cell pellets in 0.5 mL of medium. After preincubation, cell-virus mixtures were added to compound-containing 96-well plates for a final cell density of either 10,000 (MT-2 cells for reporter viruses), 20,000 (MT-2 and PM1 cells for reporter-free laboratory strains), 200,000 (PBMCs for clinical isolates), or 500,000 (CEM-NKR-CCR5-Luc for reporter-free laboratory strains) cells per well. The CEM-NKR-CCR5-Luc cell assay was performed in the presence of Polybrene (10 μg/mL). Virus growth was determined on days 4 to 5 postinfection for reporter variants or days 5 to 11 for the other viruses. The reporter viruses were detected by a luciferase assay according to manufacturer protocols (Brite-Glo luciferase kit [Promega] for CEM-NKR-CCR5-Luc cells and Dual-Luciferase Reporter 1000 assay system [Promega] for the other cells), and luminescence was detected on a Wallac Trilux. The growth of clinical isolates in PBMCs was quantitated by reverse transcriptase activity in a 96-well scintillation proximity assay (SPA). Twenty microliters of culture supernatants was mixed with 40 μL of reaction cocktail (62.5 mM Tris-HCl [pH 7.8], 100 mM KCl, 0.0625% NP-40, 2.5 mM dithiothreitol [DTT], 6.25 mM MgCl2, 1 mM EGTA, 6.25 μg/mL of poly rA, 2.5 μg/mL of streptavidin SPA beads prebound with biotinylated-dT12-18, and 1 μCi of [^3H]TTP). Mixtures were incubated at 37°C for ∼3 h and quenched with 100 μl of 0.25 M EDTA per well. Luminescence was detected on a Wallac Trilux programmed for tritium counting with SPA beads in opaque plates. The growth of the reporter-free laboratory M-tropic strains and clinical isolates was monitored by a p24 enzyme-linked immunosorbent assay (ELISA; PerkinElmer Life Sciences, Waltham, MA) performed on culture supernatants. […] A 1:1,000 dilution of cell supernatant in PBS was generally observed to fall in the dynamic range of the endpoint signal.
Maximal percent inhibition values were calculated as MPI = 100 – (mean signals at the 2 highest concentrations of compound/mean signal of 2 no-drug control wells) × 100.

[1] = Human immunodeficiency virus 1, MT2, V370A, 10% FBS
[2] = Human immunodeficiency virus 1, MT2, Wild type, 10% FBS

SMILES: C=C(C)[C@@H]1CC[C@]2(NCCN3CCS(=O)(=O)CC3)CC[C@]3(C)[C@H](CC[C@@H]4[C@@]5(C)CC=C(C6=CC[C@@](CF)(C(=O)O)CC6)C(C)(C)[C@@H]5CC[C@]43C)[C@@H]12 [GSK’254]
- MPI (A366V-containing viruses): −86 to 400%
- EC50 (Human immunodeficiency virus 1, MT2, 92BR018-genotyped NLRepRlucP373S virus): 1 nM
- EC50 (Human immunodeficiency virus 1, MT2, 93BR008-genotyped NLRepRlucP373S virus): 2 nM
- EC50 (Human immunodeficiency virus 1, MT2, R361K/V362I/L363M): 3 nM
- EC50 (Human immunodeficiency virus 1, MT2, Table S1, SDM R361K/V362I/L363M): 3 nM
- EC50 (Human immunodeficiency virus 1, MT2, Table S1, SDM S368R/V370A): 1 nM
- EC50 (Human immunodeficiency virus 1, MT2, Table S1, SDM V362I/V370A): 3 nM
- EC50 (Human immunodeficiency virus 1, MT2, Table S1, SDM V370A): 2 nM
- EC50 (Human immunodeficiency virus 1, MT2, Table S1, SDM V370A/ΔT371): 3 nM
- EC50 (Human immunodeficiency virus 1, MT2, Table S1, SDM ΔV370): 3 nM
- EC50 (Human immunodeficiency virus 1, MT2, Table S1, subtype B SDM Wild-type (V, QVT)): 3 nM
- EC50 (Human immunodeficiency virus 1, MT2, V362I/V370A): 3 nM
- EC50 [1]: 1.5 nM
- EC90 [1]: 3 nM
- EC50 [2]: 1.4 nM
- EC90 [2]: 3.6 nM
- EC50 (Human immunodeficiency virus 1, MT2, read-out: EC50 (range), Subtype B gag/pr viruses, n=24): 0.5 to 7 nM
- EC50 (Human immunodeficiency virus 1, MT2, read-out: EC50 (range), Subtype C gag/pr viruses, n=11): 1 to 2 nM
- EC50 (Human immunodeficiency virus 1, MT2, read-out: EC50 (range), V362I only viruses, n=9): 1 to 7 nM
- EC50 (Human immunodeficiency virus 1, MT2, read-out: EC50 (range), Wild-type subtype B, n=5): 0.5 to 2 nM
- EC50 (Human immunodeficiency virus 1, MT2, read-out: Mean ± SD EC50, A366V-containing viruses (A366V, V362I/A366V, V362I/A366V/V370M, A366V/V370M)): > 3000 nM
- EC50 (Human immunodeficiency virus 1, MT2, read-out: Mean ± SD EC50, SDM A326T/V362I/V370A): 26 ± 70 nM
- EC50 (Human immunodeficiency virus 1, MT2, read-out: Mean ± SD EC50, SDM A364V): 274 ± 505 nM
- EC50 (Human immunodeficiency virus 1, MT2, read-out: Mean ± SD EC50, SDM R361K/V362I/L363M): 3 ± 1 nM
- EC50 (Human immunodeficiency virus 1, MT2, read-out: Mean ± SD EC50, SDM T332S/V362I/prR41G): 7 ± 4 nM
- EC50 (Human immunodeficiency virus 1, MT2, read-out: Mean ± SD EC50, SDM V362I/V370A): 3 ± 1 nM
- EC50 (Human immunodeficiency virus 1, MT2, read-out: Mean ± SD EC50, SDM V370A): 2 ± 1 nM
- EC50 (Human immunodeficiency virus 1, MT2, read-out: Mean ± SD EC50, SDM Wild type): 3 ± 2 nM
- EC50 (Human immunodeficiency virus 1, MT2, read-out: Mean ± SD EC50, SDM ΔV370): 3 ± 1 nM
- EC50 (Human immunodeficiency virus 1, MT2, read-out: Mean ± SD EC50, Subtype B gag/pr viruses, n=24): 1.9 ± 1.5 nM
- EC50 (Human immunodeficiency virus 1, MT2, read-out: Mean ± SD EC50, Subtype C gag/pr viruses, n=11): 1.2 ± 0.4 nM
- EC50 (Human immunodeficiency virus 1, MT2, read-out: Mean ± SD EC50, V362I only viruses, n=9): 2.7 ± 2 nM
- EC50 (Human immunodeficiency virus 1, MT2, read-out: Mean ± SD EC50, V362I/ΔV370 virus, n=1): 3 nM
- EC50 (Human immunodeficiency virus 1, MT2, read-out: Mean ± SD EC50, Wild-type subtype B (V362, Q369, V370, T371), n=5): 1.1 ± 0.5 nM
- EC50 (Human immunodeficiency virus 1, MT2, read-out: Median EC50, Subtype B gag/pr viruses, n=24): 1 nM
- EC50 (Human immunodeficiency virus 1, MT2, read-out: Median EC50, Subtype C gag/pr viruses, n=11): 1 nM
- EC50 (Human immunodeficiency virus 1, MT2, read-out: Median EC50, V362I only viruses, n=9): 2 nM
- EC50 (Human immunodeficiency virus 1, MT2, read-out: Median EC50, Wild-type subtype B, n=5): 1 nM
- EC90 (Human immunodeficiency virus 1, MT2, read-out: PBA EC90, Table S1, SDM A326T/V362I/V370A): 117 nM
- EC90 (Human immunodeficiency virus 1, MT2, read-out: PBA EC90, Table S1, SDM R361K/V362I/L363M): 50 nM
- EC90 (Human immunodeficiency virus 1, MT2, read-out: PBA EC90, Table S1, SDM S368R/V370A): 9 nM
- EC90 (Human immunodeficiency virus 1, MT2, read-out: PBA EC90, Table S1, SDM T332S/V362I/PrR41G): 77 nM
- EC90 (Human immunodeficiency virus 1, MT2, read-out: PBA EC90, Table S1, SDM V362I/V370A): 18 nM
- EC90 (Human immunodeficiency virus 1, MT2, read-out: PBA EC90, Table S1, SDM V370A): 21 nM
- EC90 (Human immunodeficiency virus 1, MT2, read-out: PBA EC90, Table S1, SDM V370A/ΔT371): 40 nM
- EC90 (Human immunodeficiency virus 1, MT2, read-out: PBA EC90, Table S1, SDM ΔV370): 57 nM
- EC90 (Human immunodeficiency virus 1, MT2, read-out: PBA EC90, Table S1, subtype B SDM Wild-type (V, QVT)): 24 nM
- EC90 (Human immunodeficiency virus 1, MT2, read-out: PBA EC90, subtype B gag/pr 4NRR (Wild-type)): 25 nM
- EC90 (Human immunodeficiency virus 1, MT2, read-out: PBA EC90, subtype B gag/pr 28-MDR (Wild-type)): 37 nM
- EC90 (Human immunodeficiency virus 1, MT2, read-out: PBA EC90, subtype B gag/pr 92BR014 (V370M)): 11 nM
- EC90 (Human immunodeficiency virus 1, MT2, read-out: PBA EC90, subtype B gag/pr 92BR018 (V, QAΔ)): 26 nM
- EC90 (Human immunodeficiency virus 1, MT2, read-out: PBA EC90, subtype B gag/pr 92TH014 (V362I)): 12 nM
- EC90 (Human immunodeficiency virus 1, MT2, read-out: PBA EC90, subtype B gag/pr 92TH026 (V362I)): 32 nM
- EC90 (Human immunodeficiency virus 1, MT2, read-out: PBA EC90, subtype B gag/pr 92US072 (V362I)): 21 nM
- EC90 (Human immunodeficiency virus 1, MT2, read-out: PBA EC90, subtype B gag/pr 92US729 (Wild-type)): 13 nM
- EC90 (Human immunodeficiency virus 1, MT2, read-out: PBA EC90, subtype B gag/pr 93BR008 (V362I)): 30 nM
- EC90 (Human immunodeficiency virus 1, MT2, read-out: PBA EC90, subtype B gag/pr 93BR017 (V, QAΔ)): 20 nM
- EC90 (Human immunodeficiency virus 1, MT2, read-out: PBA EC90, subtype B gag/pr 93BR022 (V, QAΔ)): 28 nM
- EC90 (Human immunodeficiency virus 1, MT2, read-out: PBA EC90, subtype B gag/pr 93BR024 (V362I)): 180 nM
- EC90 (Human immunodeficiency virus 1, MT2, read-out: PBA EC90, subtype B gag/pr 93TH0647 (V362I)): 23 nM
- EC90 (Human immunodeficiency virus 1, MT2, read-out: PBA EC90, subtype B gag/pr 93US141 (V362I)): 37 nM
